The species entered for the experiment is Rattus norvegicus. Kind of experiment: Variation of kainate-activated (KA) currents in primary cultures of cerebellar granule neurons at 1 mM using patch-clamp technique. Type of experiment: functional.

Data on eleven molecules can be found in ChEMBL document CHEMBL1135430, “Synthesis of 3,4-dihydro-2H-1,2,4-benzo-thiadiazine 1,1-dioxide derivatives as potential allosteric modulators of AMPA/kainate receptors” (2002).

In the case of `CN(C)c1ccc(C2Nc3ccc(Cl)cc3S(=O)(=O)N2)cc1` (stereo unspecified), the Variation was -1%.

`CN(C)c1ccc(C2Nc3ccccc3S(=O)(=O)N2)cc1` (stereo unspecified): the Variation is -1%.

For the molecule `CC1Nc2ccc(Cl)cc2S(=O)(=O)N1` (stereo unspecified), the Variation stood at 115%.

On to `O=S1(=O)NC(c2ccc(O)cc2)Nc2ccc(Cl)cc21` (stereo unspecified), for which the Variation was -51%.

`O=S1(=O)NC(CCl)Nc2ccc(Cl)cc21` (stereo unspecified): the Variation is listed as -26%.

As for `NS(=O)(=O)c1cc2c(cc1Cl)NC(C1CC3C=CC1C3)NS2(=O)=O` (stereo unspecified) [CYCLOTHIAZIDE], the Variation was 111%.

`O=S1(=O)NC(c2ccccc2)Nc2ccccc21` (stereo unspecified): the Variation was -34%.

As to `O=S1(=O)NC(C(F)(F)F)Nc2ccc(Cl)cc21` (stereo unspecified), the Variation was 72%.

On to `O=S1(=O)NC(CCl)Nc2ccccc21` (stereo unspecified), for which the Variation is -22%.

As for `O=S1(=O)NC(c2ccc(O)cc2)Nc2ccccc21` (stereo unspecified), the Variation was -60%.

For `O=S1(=O)NC(C(F)(F)F)Nc2ccccc21` (stereo unspecified), the Variation came to 70%.
